Measured values taken from ChEMBL document CHEMBL3638939, “Tetrahydroisoquinolines, pharmaceutical compositions containing them, and their use in therapy” (2014).

Assays:
[1] = target: T1, Sodium- and chloride-dependent glycine transporter 1 (Homo sapiens, UniProt P48067); assay: Glycine Uptake Assay: [3H]-Glycine uptake into recombinant CHO cells expressing human GlyT1: Human GlyT1c expressing recombinant hGlyT1c_5_CHO cells were plated at 20,000 cells per well in 96 well Cytostar-T scintillation microplates (Amersham Biosciences) and cultured to sub-confluency for 24 h. For glycine uptake assays the culture medium was aspirated and the cells were washed once with 100 ul HBSS (Gibco BRL, #14025-050) with 5 mM L-Alanine (Merck #1007). 80 ul HBSS buffer were added, followed by 10 ul inhibitor or vehicle (10% DMSO) and 10 ul [3H]-glycine (TRK71, Amersham Biosciences) to a final concentration of 200 nM for initiation of glycine uptake. The plates were placed in a Wallac Microbeta (PerkinElmer) and continuously counted by solid phase scintillation spectrometry during up to 3 hours. Nonspecific uptake was determined in the presence of 10 uM Org2 4598. IC50 calculations were made by four-parametric logistic nonlinear regressi on analysis (GraphPad Prism).; assay type: cell-based
T1 sequence (P48067 whole entry): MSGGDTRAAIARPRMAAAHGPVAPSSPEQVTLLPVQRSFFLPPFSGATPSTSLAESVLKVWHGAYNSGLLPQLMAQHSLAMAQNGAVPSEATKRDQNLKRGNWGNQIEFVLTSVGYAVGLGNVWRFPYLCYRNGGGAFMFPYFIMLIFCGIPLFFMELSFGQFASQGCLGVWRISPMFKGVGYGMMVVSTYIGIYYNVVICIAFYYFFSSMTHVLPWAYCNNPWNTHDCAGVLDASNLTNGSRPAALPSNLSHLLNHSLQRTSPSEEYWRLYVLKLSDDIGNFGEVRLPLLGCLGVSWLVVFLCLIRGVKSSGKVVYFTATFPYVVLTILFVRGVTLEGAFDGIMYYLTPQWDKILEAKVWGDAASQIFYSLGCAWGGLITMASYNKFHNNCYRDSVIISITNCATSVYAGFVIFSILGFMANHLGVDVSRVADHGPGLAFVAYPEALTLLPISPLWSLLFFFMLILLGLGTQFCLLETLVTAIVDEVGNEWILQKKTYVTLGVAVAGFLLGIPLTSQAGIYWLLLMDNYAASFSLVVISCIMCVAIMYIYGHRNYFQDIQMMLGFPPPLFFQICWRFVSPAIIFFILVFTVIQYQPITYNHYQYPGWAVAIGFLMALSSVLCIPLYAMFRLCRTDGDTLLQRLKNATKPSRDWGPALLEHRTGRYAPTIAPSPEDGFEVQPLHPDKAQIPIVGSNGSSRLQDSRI

[2] = target: T1, Sodium- and chloride-dependent glycine transporter 1; assay: Radioligand Binding Assay: Radioligand binding to human GlyT1c transporter-expressing membranes was carried out as described in Mezler et al., Molecular Pharmacology 74:1705-1715, 2008.More specifically, [3H]-(R)-NPTS radioligand binding to human GlyT1c transporter-expressing membranes was measured in duplicate in a total volume of 200 ul in 96-well plates. To 100 ul of membrane suspension (yielding a final membrane protein concentration of 50 ug/ml) in assay buffer (120 mM NaCl, 2 mM KCl, 10 mM Hepes, 1 mM MgCl2, 1 mM CaCl2, pH 7.5) 80 ul of [3H]-(R)-NPTS (0.5 nM final) were added in assay buffer. For competition experiments 10 ul of buffer or unlabeled compound solution obtained from dilution series of test compounds in DMSO followed. An intermediate 1:10 dilution in assay buffer yielded a final DMSO concentration of 1%. Non-specific binding was determined in the presence of 10 uM Org24598 (or its racemate Org24461) for [3H]-(R)-NPTS.

IC50 [1] | Ki [2] | SMILES
< 0.1 µM | < 0.1 µM | CCCS(=O)(=O)NCCOc1ccc2c(c1)C(C1(c3cccc(F)c3)CCC1)NCC2 (stereo not given)
< 100 µM | < 10 µM | O=C1c2ccccc2C(=O)N1CCS(=O)(=O)NCCOc1ccc2c(c1)C(C1(c3ccc(Cl)cc3)CCC1)NCC2 (stereo not given)
 | < 10 µM | Cc1oncc1S(=O)(=O)NCCOc1ccc2c(c1)C(C1(c3ccc(Cl)cc3)CCC1)NCC2 (stereo not given)
